Experimental data: patent US20240360194A1, “New Peptides as Potent and Selective GIP Receptor Agonists” (Sanofi, priority 2021, published 2024)
Numbered stars: 1 amine (or outer) side, 2 acyl side, 3 side chain; on linkers, the order of the positions; unused ones are H or OH. Square brackets hold non-standard residues; d marks the D form. Side chains are listed from the residue outwards. Peptide text beside a SMILES is read from it. * marks the point of attachment. C18 diacid = O=C(O)CCCCCCCCCCCCCCCCC(=O)*; γGlu = O=C(O)[C@H](CCC(=O)[*:2])N[*:1]; dIva = CC[C@@](C)(N)C(=O)O; AEEA = NCCOCCOCC(=O)O; Aib = CC(C)(N)C(=O)O

Experiments:
[1] = ThT assay for the assessment of physical stability (fibrillation); type: physicochemical; conditions: ThT buffer system A: 100 mM phosphate buffer pH 7.4; 3 mg/ml, 37° C., shaking
Description: Low physical stability of a peptide solution may lead to amyloid fibril formation, which is observed as well-ordered, thread-like macromolecular structures in the sample, which eventually may lead to gel formation. Thioflavin T (ThT) is widely used to visualize and quantify the presence of misfolded protein aggregates [Biancalana et al., Biochim. Biophys. Acta 2010, 1804(7), 1405]. […] Enzymol. 1999, 309, 274]. The time course for fibril formation often follows the characteristic shape of a sigmoidal curve and can be separated into three regions: a lag phase, a fast growth phase, and a plateau phase. The typical fibril formation process starts with the lag phase in which the amount of partially folded peptide turned into fibrils is not significant enough to be detected. The lag-time corresponds to the time the critical mass of the nucleus is built. Afterwards, a drastic elongation phase follows, and fibril concentration increases rapidly. Investigations were carried out to determine fibrillation tendencies under stress conditions by shaking at 37° C. within Fluoroskan Ascent FL or Fluoroskan Ascent. For the tests in Fluoroskan Ascent (FL), 200 μl sample were placed into a 96-well mictrotiter plate PS, flat bottom, Greiner Fluotrac No. 655076. Plates were sealed with Scotch Tape (Qiagen). Samples were stressed by continuous cycles of 10 sec shaking at 960 rpm and 50 sec rest period at 37° C. The kinetic was monitored by measuring fluorescence intensity every 20 min. Peptides were diluted in a buffer system to a final concentration of 3 mg/ml. 20 μl of a 10.1 mM ThT solution in H2O were added to 2 ml of peptide solution to receive a final concentration of 100 μM ThT. For each sample eight replicates were tested. • ThT buffer system A) 100 mM phosphate buffer pH 7.4 • ThT buffer system B) 100 mM phosphate buffer pH 7.4, 2.7 mg/ml m-cresol Lag time in hours (h) in Thioflavin T (ThT) assay of peptide samples was determined in ThT buffer system A as described in Methods.

[2] = target: T1, human GIP receptor (Homo sapiens, UniProt P48546); assay: In vitro cellular cAMP assay for GIP receptor efficacy (human adipocytes); type: cell-based; conditions: for Emax: read-out: hGIPR Emax; for EC50: read-out: hGIPR EC50
T1 construct: human adipocytes endogenously expressing the human GIP receptor; host or cells: human preadipocytes (Lonza) differentiated to adipocytes
T1 sequence (P48546 22-466): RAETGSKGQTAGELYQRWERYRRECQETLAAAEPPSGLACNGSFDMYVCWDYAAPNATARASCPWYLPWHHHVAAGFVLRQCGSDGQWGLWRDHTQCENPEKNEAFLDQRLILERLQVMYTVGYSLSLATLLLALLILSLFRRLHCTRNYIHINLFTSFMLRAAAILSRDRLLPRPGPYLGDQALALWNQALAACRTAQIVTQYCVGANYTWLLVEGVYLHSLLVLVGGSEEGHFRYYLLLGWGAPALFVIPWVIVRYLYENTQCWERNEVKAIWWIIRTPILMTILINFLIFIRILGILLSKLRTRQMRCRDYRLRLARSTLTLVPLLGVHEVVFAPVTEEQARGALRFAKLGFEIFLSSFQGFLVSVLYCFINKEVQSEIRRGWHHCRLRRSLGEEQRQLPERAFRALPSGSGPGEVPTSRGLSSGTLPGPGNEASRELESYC
Summary of the method: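 cAMP is read by HTRF (665/620 nm ratio, 1 h after reagents in lysis buffer) following 30 min compound exposure at room temperature. Cells are human preadipocyte-derived adipocytes, differentiated 6 days with insulin, dexamethasone, IBMX (200 μM), PPARγ agonist and L-thyroxine, seeded 5000 per well.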

Row | SMILES | Increase in FI [1] | Lag time before increase [1] [h] | Emax [2] [%] | EC50 [2] [nM]
1 | CC[C@H](C)[C@H](NC(=O)[C@H](CCCNC(=N)N)NC(=O)[C@H](CCC(=O)O)NC(=O)[C@H](CCCCNC(=O)COCCOCCNC(=O)COCCOCCNC(=O)CC[C@H](NC(=O)CCCCCCCCCCCCCCCCC(=O)O)C(=O)O)NC(=O)C(C)(C)NC(=O)[C@@H](NC(=O)[C@H](CO)NC(=O)[C@H](CC(C)C)NC(=O)[C@H](CC(=O)O)NC(=O)[C@H](CO)NC(=O)[C@@H](NC(=O)[C@H](Cc1ccccc1)NC(=O)[C@@H](NC(=O)CNC(=O)[C@H](CCC(=O)O)NC(=O)C(C)(C)NC(=O)[C@@H](N)Cc1ccc(O)cc1)[C@@H](C)O)[C@@H](C)CC)[C@@H](C)CC)C(=O)N[C@@H](Cc1c[nH]cn1)C(=O)N[C@@H](CCC(N)=O)C(=O)NC(C)(C)C(=O)N[C@@H](CCC(=O)O)C(=O)N[C@@H](Cc1ccccc1)C(=O)N[C@H](C(=O)N[C@@H](CCC(=O)O)C(=O)N[C@@H](Cc1c[nH]c2ccccc12)C(=O)N[C@@H](CC(C)C)C(=O)N[C@@H](CC(C)C)C(=O)N[C@@H](C)C(=O)N[C@@H](CCC(N)=O)C(=O)NCC(=O)N1CCC[C@H]1C(=O)N[C@@H](CO)C(=O)N[C@@H](CO)C(=O)NCC(=O)N[C@@H](C)C(=O)N1CCC[C@H]1C(=O)N1CCC[C@H]1C(=O)N1CCC[C@H]1C(=O)N[C@@H](CO)C(N)=O)[C@@H](C)CC [SEQ ID NO: 21, H2N-Y-Aib-E-G-T-F-I-S-D-L-S-I-Aib-K[{AEEA}2-gGlu-C18OH]-E-R-I-H-Q-Aib-E-F-I-E-W-L-L-A-Q-G-P-S-S-G-A-P-P-P-S-NH2] (H-Y[Aib]EGTFISDLSI[Aib]K([AEEA-AEEA-γGlu-C18 diacid])ERIHQ[Aib]EFIEWLLAQGPSSGAPPPS-NH2) | no | >45 | 120 | 
2 | CC[C@H](C)[C@H](NC(=O)[C@H](Cc1ccccc1)NC(=O)[C@H](CCC(=O)O)NC(=O)C(C)(C)NC(=O)[C@H](CCC(N)=O)NC(=O)[C@H](Cc1c[nH]cn1)NC(=O)C(C)(C)NC(=O)[C@H](CCCNC(=N)N)NC(=O)[C@H](CC(=O)O)NC(=O)[C@H](CCCCNC(=O)COCCOCCNC(=O)COCCOCCNC(=O)CC[C@H](NC(=O)CCCCCCCCCCCCCCCCC(=O)O)C(=O)O)NC(=O)C(C)(C)NC(=O)[C@@H](NC(=O)[C@H](CO)NC(=O)[C@H](CC(C)C)NC(=O)[C@H](CC(=O)O)NC(=O)[C@H](CO)NC(=O)[C@@H](NC(=O)[C@H](Cc1ccccc1)NC(=O)[C@@H](NC(=O)CNC(=O)[C@H](CCC(=O)O)NC(=O)C(C)(C)NC(=O)[C@@H](N)Cc1ccc(O)cc1)[C@@H](C)O)[C@@H](C)CC)[C@@H](C)CC)C(=O)N[C@@H](CCC(=O)O)C(=O)N[C@@H](Cc1c[nH]c2ccccc12)C(=O)N[C@@H](CC(C)C)C(=O)N[C@@H](CC(C)C)C(=O)N[C@@H](C)C(=O)N[C@@H](CCC(N)=O)C(=O)N[C@@H](CCCNC(=N)N)C(=O)N1CCC[C@H]1C(=O)N[C@@H](CO)C(=O)N[C@@H](CO)C(=O)NCC(=O)N[C@@H](C)C(=O)N1CCC[C@H]1C(=O)N1CCC[C@H]1C(=O)N1CCC[C@H]1C(=O)N[C@@H](CO)C(N)=O [SEQ ID NO: 22, H2N-Y-Aib-E-G-T-F-I-S-D-L-S-I-Aib-K[{AEEA}2-gGlu-C18OH]-D-R-Aib-H-Q-Aib-E-F-I-E-W-L-L-A-Q-R-P-S-S-G-A-P-P-P-S-NH2] (H-Y[Aib]EGTFISDLSI[Aib]K([AEEA-AEEA-γGlu-C18 diacid])DR[Aib]HQ[Aib]EFIEWLLAQRPSSGAPPPS-NH2) | no | >45 | 98 | 0.6
3 | CC[C@H](C)[C@H](NC(=O)[C@H](CCCNC(=N)N)NC(=O)[C@H](CC(=O)O)NC(=O)[C@H](CCCCNC(=O)COCCOCCNC(=O)COCCOCCNC(=O)CC[C@H](NC(=O)CCCCCCCCCCCCCCCCC(=O)O)C(=O)O)NC(=O)C(C)(C)NC(=O)[C@@H](NC(=O)[C@H](CO)NC(=O)[C@H](CC(C)C)NC(=O)[C@H](CC(=O)O)NC(=O)[C@H](CO)NC(=O)[C@@H](NC(=O)[C@H](Cc1ccccc1)NC(=O)[C@@H](NC(=O)CNC(=O)[C@H](CCC(=O)O)NC(=O)C(C)(C)NC(=O)[C@@H](N)Cc1ccc(O)cc1)[C@@H](C)O)[C@@H](C)CC)[C@@H](C)CC)C(=O)N[C@@H](Cc1c[nH]cn1)C(=O)N[C@@H](CCC(N)=O)C(=O)NC(C)(C)C(=O)N[C@@H](CCC(=O)O)C(=O)N[C@@H](Cc1ccccc1)C(=O)N[C@H](C(=O)N[C@@H](CCC(=O)O)C(=O)N[C@@H](Cc1c[nH]c2ccccc12)C(=O)N[C@](C)(CC)C(=O)N[C@@H](CC(C)C)C(=O)N[C@@H](C)C(=O)N[C@@H](CCC(N)=O)C(=O)NCC(=O)N1CCC[C@H]1C(=O)N[C@@H](CO)C(=O)N[C@@H](CO)C(=O)NCC(=O)N[C@@H](C)C(=O)N1CCC[C@H]1C(=O)N1CCC[C@H]1C(=O)N1CCC[C@H]1C(=O)N[C@@H](CO)C(N)=O)[C@@H](C)CC [SEQ ID NO: 31, H2N-Y-Aib-E-G-T-F-I-S-D-L-S-I-Aib-K[{AEEA}2-gGlu-C18OH]-D-R-I-H-Q-Aib-E-F-I-E-W-Iva-L-A-Q-G-P-S-S-G-A-P-P-P-S-NH2] (H-Y[Aib]EGTFISDLSI[Aib]K([AEEA-AEEA-γGlu-C18 diacid])DRIHQ[Aib]EFIEW[dIva]LAQGPSSGAPPPS-NH2) | no | >45 | 121 | 0.7
4 | CC[C@H](C)[C@H](NC(=O)[C@H](CCCNC(=N)N)NC(=O)[C@H](CC(=O)O)NC(=O)[C@H](CC(C)C)NC(=O)C(C)(C)NC(=O)[C@@H](NC(=O)[C@H](CO)NC(=O)[C@H](CC(C)C)NC(=O)[C@H](CC(=O)O)NC(=O)[C@H](CO)NC(=O)[C@@H](NC(=O)[C@H](Cc1ccccc1)NC(=O)[C@@H](NC(=O)CNC(=O)[C@H](CCC(=O)O)NC(=O)C(C)(C)NC(=O)[C@@H](N)Cc1ccc(O)cc1)[C@@H](C)O)[C@@H](C)CC)[C@@H](C)CC)C(=O)N[C@@H](CCCCNC(=O)COCCOCCNC(=O)COCCOCCNC(=O)CC[C@H](NC(=O)CCCCCCCCCCCCCCCCC(=O)O)C(=O)O)C(=O)N[C@@H](CCC(N)=O)C(=O)NC(C)(C)C(=O)N[C@@H](CCC(=O)O)C(=O)N[C@@H](Cc1ccccc1)C(=O)N[C@H](C(=O)N[C@@H](CCC(=O)O)C(=O)N[C@@H](Cc1c[nH]c2ccccc12)C(=O)N[C@@H](CC(C)C)C(=O)N[C@@H](CC(C)C)C(=O)N[C@@H](C)C(=O)N[C@@H](CCC(N)=O)C(=O)NCC(=O)N1CCC[C@H]1C(=O)N[C@@H](CO)C(=O)N[C@@H](CO)C(=O)NCC(=O)N[C@@H](C)C(=O)N1CCC[C@H]1C(=O)N1CCC[C@H]1C(=O)N1CCC[C@H]1C(=O)N[C@@H](CO)C(N)=O)[C@@H](C)CC [SEQ ID NO: 37, H2N-Y-Aib-E-G-T-F-I-S-D-L-S-I-Aib-L-D-R-I-K[{AEEA}2-gGlu-C18OH]-Q-Aib-E-F-I-E-W-L-L-A-Q-G-P-S-S-G-A-P-P-P-S-NH2] (H-Y[Aib]EGTFISDLSI[Aib]LDRIK([AEEA-AEEA-γGlu-C18 diacid])Q[Aib]EFIEWLLAQGPSSGAPPPS-NH2) | no | >45 | 113 | 0.5
